Source: patent US10099993B2, “Metabotropic glutamate receptor positive allosteric modulators (PAMS) and uses thereof” (Sanford-Burnham Medical Research Institute, priority 2014, dated 2018)
Blank lines part the entries; values can stand above or below the compound they belong to.

Assays:
[1] = target: mGlu3 (Rattus norvegicus (Rat), UniProt P31422); test: mGlu3 GIRK thallium flux assay; details: for EC50: read-out: mGlu3 PAM EC50, PAM mode, test compound, then EC20 glutamate […] later in the presence of thallium, mean ± SEM; for Emax: read-out: mGlu3 PAM Max;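 as to all read-outs here: kinetic fluorescence slope read shortly after thallium plus agonist addition, scaled between vehicle and maximal agonist control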
[2] = target: mGlu2 (Rattus norvegicus (Rat), UniProt P31421); test: mGlu2 GIRK thallium flux assay; details: for EC50: read-out: mGlu2 PAM EC50, PAM mode, test compound, then EC20 glutamate […] later in the presence of thallium, mean ± SEM, at least three experiments; for Emax: read-out: mGlu2 PAM Max;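 as to all read-outs here: Cell-based assay, rate of fluorescence rise right after thallium plus agonist addition read on a kinetic imaging plate reader, normalized to vehicle and maximal agonist control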
Chain of mGlu2 (P31421 19-872): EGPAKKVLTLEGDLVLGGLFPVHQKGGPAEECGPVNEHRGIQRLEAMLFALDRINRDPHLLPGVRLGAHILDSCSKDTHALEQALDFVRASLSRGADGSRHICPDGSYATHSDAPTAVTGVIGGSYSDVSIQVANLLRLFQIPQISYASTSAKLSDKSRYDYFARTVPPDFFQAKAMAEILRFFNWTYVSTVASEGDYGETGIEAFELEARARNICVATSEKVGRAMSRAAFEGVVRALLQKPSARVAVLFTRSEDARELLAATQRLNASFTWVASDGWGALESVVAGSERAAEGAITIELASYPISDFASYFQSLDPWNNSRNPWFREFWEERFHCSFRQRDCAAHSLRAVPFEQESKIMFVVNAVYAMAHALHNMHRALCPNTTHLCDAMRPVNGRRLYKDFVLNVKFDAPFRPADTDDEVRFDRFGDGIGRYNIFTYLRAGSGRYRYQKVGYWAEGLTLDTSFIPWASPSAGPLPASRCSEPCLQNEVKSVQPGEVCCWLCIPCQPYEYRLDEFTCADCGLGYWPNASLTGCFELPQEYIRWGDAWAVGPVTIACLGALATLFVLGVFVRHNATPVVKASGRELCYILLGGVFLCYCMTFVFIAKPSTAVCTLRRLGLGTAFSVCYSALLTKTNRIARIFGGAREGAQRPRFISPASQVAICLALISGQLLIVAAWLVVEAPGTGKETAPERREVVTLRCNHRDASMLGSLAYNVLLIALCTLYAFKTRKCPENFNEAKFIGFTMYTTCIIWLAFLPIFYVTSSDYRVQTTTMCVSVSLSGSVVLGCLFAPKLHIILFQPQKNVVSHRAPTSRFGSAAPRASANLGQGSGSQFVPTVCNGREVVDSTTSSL

Chain of mGlu3 (P31422 23-879): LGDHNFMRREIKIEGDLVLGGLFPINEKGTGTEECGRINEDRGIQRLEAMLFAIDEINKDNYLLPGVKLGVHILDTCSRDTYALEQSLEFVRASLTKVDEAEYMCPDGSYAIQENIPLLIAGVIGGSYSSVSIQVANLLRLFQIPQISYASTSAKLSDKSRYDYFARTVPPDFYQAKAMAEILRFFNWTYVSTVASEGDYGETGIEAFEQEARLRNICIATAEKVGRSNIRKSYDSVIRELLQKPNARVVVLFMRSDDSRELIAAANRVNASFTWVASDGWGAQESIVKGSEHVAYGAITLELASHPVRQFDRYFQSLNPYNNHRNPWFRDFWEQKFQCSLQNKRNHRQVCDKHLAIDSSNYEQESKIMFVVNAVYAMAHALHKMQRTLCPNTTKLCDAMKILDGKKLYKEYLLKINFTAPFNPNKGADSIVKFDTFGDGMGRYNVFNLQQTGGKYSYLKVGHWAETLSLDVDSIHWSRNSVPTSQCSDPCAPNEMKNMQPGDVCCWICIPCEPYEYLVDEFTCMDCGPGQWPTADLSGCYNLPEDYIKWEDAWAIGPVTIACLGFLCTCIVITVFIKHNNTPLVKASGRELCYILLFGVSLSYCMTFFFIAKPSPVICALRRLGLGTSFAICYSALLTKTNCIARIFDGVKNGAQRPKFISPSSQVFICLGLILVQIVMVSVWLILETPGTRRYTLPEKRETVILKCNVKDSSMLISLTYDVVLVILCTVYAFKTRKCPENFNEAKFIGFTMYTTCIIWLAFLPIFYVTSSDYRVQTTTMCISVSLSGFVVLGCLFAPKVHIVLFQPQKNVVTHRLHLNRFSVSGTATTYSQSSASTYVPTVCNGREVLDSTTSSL

- EC50 [1]: > 30 µM
SMILES: Cc1c(OCCCCOc2ccc(CCC(=O)O)c(O)c2)ccc(C(=O)CC(C)C)c1O [Compound 5, reference compound]

SMILES: COC(=O)c1ccc(OCCCCOc2ccc(C(=O)CC(C)C)c(C)c2C)cc1 [Compound 14, Methyl 4-(4-(2,3-dimethyl-4-(3-methylbutanoyl)phenoxy)butoxy)benzoate]
- EC50 [2]: > 30 µM
- EC50 [1]: > 30 µM

SMILES: COC(=O)c1ccc(OCCCCOc2ccc(C(=O)CC3CCCC3)c(C)c2C)cc1 [Compound 15, Methyl 4-(4-(4-(2-cyclopentylacetyl)-2,3-dimethylphenoxy)butoxy)benzoate]
- EC50 [2]: > 30 µM
- EC50 [1]: > 30 µM

SMILES: COC(=O)c1ccc(OCCCCOc2ccc(C(=O)CC(C)C)c(O)c2C)cc1 [Compound 16, Methyl 4-(4-(3-hydroxy-2-methyl-4-(3-methylbutanoyl)phenoxy)butoxy)benzoate]
- EC50 [2]: > 30 µM
- EC50 [1]: > 30 µM

SMILES: COC(=O)c1ccc(OCCCCOc2ccc(C(=O)CC3CCCC3)c(O)c2C)cc1 [Compound 17, Methyl 4-(4-(4-(2-cyclopentylacetyl)-3-hydroxy-2-methylphenoxy)butoxy)benzoate]
- EC50 [2]: > 30 µM
- EC50 [1]: > 30 µM

SMILES: Cc1c(OCCCCOc2ccc(C(=O)O)cc2)ccc(C(=O)CC(C)C)c1C [Compound 18, 4-(4-(2,3-Dimethyl-4-(3-methylbutanoyl)phenoxy)butoxy)benzoic acid]
- EC50 [2]: > 30 µM
- EC50 [1]: > 30 µM

SMILES: Cc1c(OCCCCOc2ccc(C(=O)O)cc2)ccc(C(=O)CC2CCCC2)c1C [Compound 19, 4-(4-(4-(2-Cyclopentylacetyl)-2,3-dimethylphenoxy)butoxy)benzoic acid]
- EC50 [2]: > 30 µM
- EC50 [1]: > 30 µM

SMILES: Cc1c(OCCCCOc2cccc(C(=O)O)c2)ccc(C(=O)CC(C)C)c1C [Compound 22, 3-(4-(2,3-Dimethyl-4-(3-methylbutanoyl)phenoxy)butoxy)benzoic acid]
- EC50 [2]: > 30 µM
- EC50 [1]: > 30 µM

SMILES: Cc1c(OCCCCOc2cccc(C(=O)O)c2)ccc(C(=O)CC2CCCC2)c1C [Compound 23, 3-(4-(4-(2-Cyclopentylacetyl)-2,3-dimethylphenoxy)butoxy)benzoic acid]
- EC50 [2]: > 30 µM
- EC50 [1]: > 30 µM

SMILES: Cc1c(OCCCCOc2ccccc2C(=O)O)ccc(C(=O)CC2CCCC2)c1C [Compound 27, 2-(4-(4-(2-Cyclopentylacetyl)-2,3-dimethylphenoxy)butoxy)benzoic acid]
- EC50 [1]: > 30 µM

SMILES: Cc1c(OCCCCOc2ccccc2C(=O)O)ccc(C(=O)CC(C)C)c1O [Compound 28, 2-(4-(3-Hydroxy-2-methyl-4-(3-methylbutanoyl)phenoxy)butoxy)benzoic acid]
- EC50 [1]: > 30 µM

SMILES: Cc1c(OCCCCOc2ccccc2C(=O)O)ccc(C(=O)CC2CCCC2)c1O [Compound 29, 2-(4-(4-(2-Cyclopentylacetyl)-3-hydroxy-2-methylphenoxy)butoxy)benzoic acid]
- EC50 [1]: > 30 µM

SMILES: Cc1c(OCCCCOc2ccc(C(=O)O)c(Cl)c2)ccc(C(=O)CC(C)C)c1C [Compound 30, 2-Chloro-4-(4-(2,3-dimethyl-4-(3-methylbutanoyl)phenoxy)butoxy)benzoic acid]
- EC50 [1]: > 30 µM

SMILES: Cc1c(OCCCCOc2ccc(F)c(C(=O)O)c2)ccc(C(=O)CC(C)C)c1C [Compound 34, 5-(4-(2,3-Dimethyl-4-(3-methylbutanoyl)phenoxy)butoxy)-2-fluorobenzoic acid]
- EC50 [2]: > 30 µM
- EC50 [1]: > 30 µM

SMILES: Cc1c(OCCCCOc2ccc(F)c(C(=O)O)c2)ccc(C(=O)CC2CCCC2)c1C [Compound 35, 5-(4-(4-(2-Cyclopentylacetyl)-2,3-dimethylphenoxy)butoxy)-2-fluorobenzoic acid]
- EC50 [2]: > 30 µM
- EC50 [1]: > 30 µM

SMILES: COc1cc(C(=O)O)ccc1OCCCCOc1ccc(C(C)=O)c(O)c1C [Compound 52, 4-(4-(4-Acetyl-3-hydroxy-2-methylphenoxy)butoxy)-3-methoxybenzoic acid]
- EC50 [1]: > 30 µM

SMILES: COc1ccc(C(=O)O)cc1OCCCCOc1ccc(C(C)=O)c(O)c1C [Compound 53, 3-(4-(4-Acetyl-3-hydroxy-2-methylphenoxy)butoxy)-4-methoxybenzoic acid]
- EC50 [1]: > 30 µM

SMILES: CC(=O)c1ccc(OCCCCOc2cccc(C(=O)O)c2C)c(C)c1O [Compound 54, 3-(4-(4-Acetyl-3-hydroxy-2-methylphenoxy)butoxy)-2-methylbenzoic acid]
- EC50 [1]: > 30 µM

SMILES: CC(=O)c1ccc(OCCCCOc2ccc(F)c(C(=O)O)c2)c(C)c1O [Compound 55, 5-(4-(4-Acetyl-3-hydroxy-2-methylphenoxy)butoxy)-2-fluorobenzoic acid]
- EC50 [1]: > 30 µM

SMILES: CC(=O)c1ccc(OCCCCOc2ccc(C(=O)O)cc2C)c(C)c1O [Compound 56, 4-(4-(4-Acetyl-3-hydroxy-2-methylphenoxy)butoxy)-3-methylbenzoic acid]
- EC50 [1]: > 30 µM

SMILES: CCC(=O)c1ccc(OCCCCOc2ccc(C(=O)O)cc2OC)c(C)c1O [Compound 57, 4-(4-(3-Hydroxy-2-methyl-4-propionylphenoxy)butoxy)-3-methoxybenzoic acid]
- EC50 [1]: > 30 µM

SMILES: CCC(=O)c1ccc(OCCCCOc2cccc(C(=O)O)c2C)c(C)c1O [Compound 59, 3-(4-(3-Hydroxy-2-methyl-4-propionylphenoxy)butoxy)-2-methylbenzoic acid]
- EC50 [1]: > 30 µM

SMILES: CCC(=O)c1ccc(OCCCCOc2ccc(C(=O)O)cc2C)c(C)c1O [Compound 61, 4-(4-(3-Hydroxy-2-methyl-4-propionylphenoxy)butoxy)-3-methylbenzoic acid]
- EC50 [1]: > 30 µM

SMILES: COc1cc(C(=O)O)ccc1OCCCCOc1ccc(C(=O)C(C)C)c(O)c1C [Compound 62, 4-(4-(3-Hydroxy-4-isobutyryl-2-methylphenoxy)butoxy)-3-methoxybenzoic acid]
- EC50 [1]: > 30 µM

SMILES: Cc1c(OCc2cccc(-c3occc3C(=O)O)c2)ccc(C(=O)CC(C)(C)C)c1O [Compound 178, 2-(3-((4-(3,3-Dimethylbutanoyl)-3-hydroxy-2-methylphenoxy)methyl)phenyl)furan-3-carboxylic acid]
- EC50 [2]: 0.409 ± 0.105 µM
- Emax [2]: 81.4 ± 10.1%
- EC50 [1]: 2.87 ± 1.12 µM
- Emax [1]: 67.7 ± 11.7%

SMILES: Cc1c(OCc2cccc(-c3cncc(C(=O)O)c3)c2)ccc(C(=O)CC(C)(C)C)c1O [Compound 179, 5-(3-((4-(3,3-Dimethylbutanoyl)-3-hydroxy-2-methylphenoxy)methyl)phenyl)nicotinic acid]
- EC50 [2]: 0.848 ± 0.009 µM
- Emax [2]: 100 ± 2.9%
- EC50 [1]: 1.01 ± 0.02 µM
- Emax [1]: 102 ± 3.5%

SMILES: Cc1c(OCc2cccc(-c3cnccc3C(=O)O)c2)ccc(C(=O)CC(C)(C)C)c1O [Compound 180, 3-(3-((4-(3,3-Dimethylbutanoyl)-3-hydroxy-2-methylphenoxy)methyl)phenyl)isonicotinic acid]
- EC50 [2]: 1.46 ± 0.02 µM
- Emax [2]: 88.4 ± 1.5%
- EC50 [1]: > 30 µM
- Emax [1]: 30.6 ± 9.2%

SMILES: Cc1c(OCCCCOc2ccc(C(=O)C(C)C)c(O)c2C)cccc1C(=O)O [compound 64, 3-(4-(3-Hydroxy-4-isobutyryl-2-methylphenoxy)butoxy)-2-methylbenzoic acid]
- EC50 [1]: > 30 µM

SMILES: Cc1cc(C(=O)O)ccc1OCCCCOc1ccc(C(=O)C(C)C)c(O)c1C [compound 66, 4-(4-(3-Hydroxy-4-isobutyryl-2-methylphenoxy)butoxy)-3-methylbenzoic acid]
- EC50 [1]: > 30 µM

- Emax [1]: 110 ± 2.4%
SMILES: COc1ccc(C(=O)O)cc1-c1cncc(COc2ccc(C(=O)CC(C)(C)C)c(O)c2C)c1 [compound 160, 3-(5-((4-(3,3-Dimethylbutanoyl)-3-hydroxy-2-methylphenoxy)methyl)pyridin-3-yl)-4-methoxybenzoic acid]
